Measured values: patent US20190381171A1, “CO-USE OF ANTI-BCMA ANTIBODY AND ANTIBODY-COUPLED T CELL RECEPTOR (ACTR) IN CANCER THERAPY AND B CELL DISORDERS” (UNUM THERAPEUTICS INC., priority 2017, published 2019)

How the values were obtained:
RPMI-8226 target cells = experiment: ACTR T-cell proliferation (live CD3+ T cell count, flow cytometry, 7 days); type: cell-based, human; conditions: ACTR variant SEQ ID NO: 1, E:T 1:1, hSG16.17 SEA 1 μg/mL, absence or presence of lenalidomide 1 μM, 7 day
Method: (§1) T-cells expressing ACTR variant SEQ ID NO: 1 (effector; E) and target cells (target; T) were incubated at a 1:1, effector-to-target ratio (30,000 T cells; 30,000 target cells) with increasing concentrations of humanized afucosylated (SEA) BCMA antibody in a 200-μL reaction volume in RPMI 1640 media supplemented with 10% fetal bovine serum and 25 U/mL IL2. Reactions were incubated in a CO2 (5%) incubator at 37 degrees C. for 7 days. The number of live CD3+ T-cells were determined at day 1 and day 7 and compared to the input number of T-cells (dotted line). Briefly, at day 1 and day 7, cells were washed twice in staining buffer before being stained with a Live/Dead eFluor-780 dye for 30 min at 4 degrees C. […] After staining, cells were washed twice again with staining buffer and staining was subsequently detected via flow cytometry. […]
Mock or ACTR T cells (effector; E) and target cells (target; T) were incubated at a 1:1, effector-to-target cell ratio in the presence and absence of the anti-BCMA antibody, hSG16.17 SEA (1 μg/mL). […] The total CD3+ T cell count was determined by flow cytometry after a 7 day incubation in a CO2 (5%) incubator. […] After staining, cells were washed twice with staining buffer and detected via flow cytometry. […]

NCI-H929 target cells = experiment: as above; type: cell-based, human; conditions: ACTR variant SEQ ID NO: 1, E:T 1:1, hSG16.17 SEA 1 μg/mL, absence or presence of lenalidomide 1 μM, 7 day
Method: as §1
Mock T cells or ACTR T cells (effector; E) and target cells (target; T) were incubated at a 1:1, effector-to-target cell ratio (30,000 target cells) with increasing concentration of humanized afucosylated anti-BCMA antibody (hSG16.17SEA) in a 200-μL reaction volume in RPMI 1640 media supplemented with 10% fetal bovine serum. […] The counts of live CD3+ T cells were determined at day 7. […] After staining, cells were washed twice again with staining buffer and staining was subsequently detected via flow cytometry. […]

Nc1cccc2c1CN(C1CCC(=O)NC1=O)C2=O (centres unmarked) [Lenalidomide, lenalidomide, reference compound]
CD3+ T cell count (RPMI-8226 target cells): further enhanced the proliferation
CD3+ T cell count (NCI-H929 target cells): further enhanced the proliferation
